Experimental data published in paper PMC12610816, “New Dihalogenated Derivatives of Condensed Benzimidazole Diones Promotes Cancer Cell Death Through Regulating STAT3/HK2 Axis/Pathway” (Molecules, 2025).
Blank lines part the entries; values can stand above or below the compound they belong to.

Columns and labels:
MTT cytotoxicity assay = type: cell-based; details: HEK-293 cells (normal embryonic kidney), Human embryonic kidney (normal origin), read-out: IC50 of Cytotoxic Effect, Hek-293
Method: (§1) Human lung adenocarcinoma A549 cells, breast carcinoma MCF-7 cells, colon adenocarcinoma SW480 cells, neuroblastoma SH-SY5Y cells, and normal human embryonic kidney HEK-293 cells were obtained from the collection of the Institute of Cytology of the Russian Academy of Sciences (Saint Petersburg, Russia). Cultivation was performed in complete DMEM supplemented with glutamax, containing 10% fetal bovine serum and 1% penicillin-streptomycin. Cell cultures were incubated at 37 °C in a humidified atmosphere with 5% CO2.
(§2) The MTT assay was used to determine the cytotoxic profile of the synthesized compounds [128]. This method is based on the reduction of the tetrazolium salt (3-(4,5-dimethylthiazol-2-yl)-2,5-diphenyl tetrazolium bromide) by mitochondrial dehydrogenases of living cells to water-insoluble formazan crystals.
(§3) Cells in the exponential growth phase were seeded in 96-well culture plates. After 24 h, the test compounds were added to each well at various concentrations (from 0.01 to 100 µM) in triplicate. Control wells contained 1% DMSO solution.
(§4) Following a 24-h incubation with the compounds, 5 mg/mL MTT solution was added to each well, and the cells were incubated at 37 °C for 2 h. Then, the MTT solution was carefully removed, and 200 µL DMSO was added to dissolve the formed formazan crystals. Optical density was measured at a wavelength of 540 nm.
(§5) The efficacy indicators of the cytotoxic effect were IC50 values, representing compound concentrations causing 50% cell death in the sample.

A549 = experiment: MTT cytotoxicity assay; type: cell-based; details: Human non-small cell lung cancer, 24 h, read-out: IC50 of Cytotoxic Effect, A549
Method: as §1, §2, §3, §4, §5

MCF-7 = experiment: MTT cytotoxicity assay; type: cell-based; details: MCF7, Human breast adenocarcinoma cells, 24 h, read-out: IC50 of Cytotoxic Effect, MCF-7
Method: as §1, §2, §3, §4, §5

SH-SY5Y = experiment: MTT cytotoxicity assay; type: cell-based; details: Human neuroblastoma, 24 h, read-out: IC50 of Cytotoxic Effect, SH-SY5Y
Method: as §1, §2, §3, §4, §5

SW-480 = experiment: MTT cytotoxicity assay; type: cell-based; details: SW480, Human colorectal cancer cells, 24 h, read-out: IC50 of Cytotoxic Effect, SW-480
Method: as §1, §2, §3, §4, §5

phosphofructokinase I = experiment: Glycolytic enzyme activity in treated cells (colorimetric kit); type: cell-based, human; details: MCF-7 cells, 24-h incubation, 1/2 IC50
pyruvate kinase M2 = biological target: T1, pyruvate kinase M2 (Homo sapiens, UniProt P14618); experiment: as above; type: cell-based; details: MCF-7 cells, 24-h incubation, 1/2 IC50
T1 construct: activity of rate-limiting glycolytic enzymes—hexokinase II, phosphofructokinase I, and pyruvate kinase M2—in MCF-7 cells; endogenous in cells
T1 sequence (P14618 whole entry): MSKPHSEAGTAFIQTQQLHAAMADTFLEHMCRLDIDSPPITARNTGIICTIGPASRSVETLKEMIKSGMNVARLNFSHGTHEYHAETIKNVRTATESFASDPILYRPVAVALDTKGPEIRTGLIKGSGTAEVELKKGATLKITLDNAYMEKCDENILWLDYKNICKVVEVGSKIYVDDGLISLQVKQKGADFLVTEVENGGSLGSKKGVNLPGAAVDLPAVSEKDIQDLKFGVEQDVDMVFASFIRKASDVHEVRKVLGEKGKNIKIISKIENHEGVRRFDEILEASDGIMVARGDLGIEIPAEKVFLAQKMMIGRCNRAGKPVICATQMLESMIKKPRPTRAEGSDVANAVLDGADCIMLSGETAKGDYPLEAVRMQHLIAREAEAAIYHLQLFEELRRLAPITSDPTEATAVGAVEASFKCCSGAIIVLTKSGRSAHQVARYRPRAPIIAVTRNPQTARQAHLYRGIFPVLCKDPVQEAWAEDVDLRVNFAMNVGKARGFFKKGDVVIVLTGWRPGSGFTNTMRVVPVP

hexokinase II = experiment: as above; type: cell-based, human; details: MCF-7 cells, 24-h incubation, 1/2 IC50
[1] = MTT cytotoxicity assay, whole cell line panel; type: cell-based; details: human; summary of Table 1 over all five cell lines; read-out: IC50 values of the cytotoxic effect, range over the cell lines
Method: The cytotoxic effects of the synthesized compounds were tested on the cell lines A549, MCF-7, SW-480, SH-SY5Y, and HEK-293.

Inhibition of enzyme activity, % of control: PKM2 (pyruvate kinase M2): 11.39 % of control
SMILES: O=C1C(Br)=C(Br)C(=O)c2c1nc1n2CCCC1 [Compound 6a, 7,8-dibromo-1,2,3,4-tetrahydropyrido[1,2-a]benzimidazole-6,9-dione]
IC50 at 24 h (MTT cytotoxicity assay): 24.8 ± 0.42 µM
IC50 (A549): 9.53 ± 0.59 µM
IC50 (MCF-7): 8.81 ± 1.65 µM
IC50 (SH-SY5Y): 9.66 ± 0.57 µM
IC50 (SW-480): 9.11 ± 0.13 µM
Inhibition of enzyme activity, % of control: PFK1 (phosphofructokinase I): 9.75 % of control

Inhibition of enzyme activity, % of control: PKM2 (pyruvate kinase M2): 14.85 % of control
SMILES: O=C1C(Br)=C(Cl)C(=O)c2c1nc1n2CCCC1 [Compound 6b, 7-bromo-8-chloro-1,2,3,4-tetrahydropyrido[1,2-a]benzimidazole-6,9-dione]
IC50 at 24 h (MTT cytotoxicity assay): 16.52 ± 0.15 µM
IC50 (A549): 8.86 ± 3.19 µM
IC50 (MCF-7): 7.79 ± 0.03 µM
IC50 (SH-SY5Y): 8.6 ± 0.06 µM
IC50 (SW-480): 10.5 ± 0.68 µM
Inhibition of enzyme activity, % of control: HK2 (hexokinase II): 34.25 % of control
Inhibition of enzyme activity, % of control: PFK1 (phosphofructokinase I): 7.49 % of control

Inhibition of enzyme activity, % of control: PKM2 (pyruvate kinase M2): 13.57 % of control
SMILES: O=C1C(Cl)=C(Br)C(=O)c2c1nc1n2CCCC1 [Compound 6c, 8-bromo-7-chloro-1,2,3,4-tetrahydropyrido[1,2-a]benzimidazole-6,9-dione]
IC50 at 24 h (MTT cytotoxicity assay): 16 ± 0.18 µM
IC50 (A549): 7.81 ± 0.64 µM
IC50 (MCF-7): 8.35 ± 0.32 µM
IC50 (SH-SY5Y): 9.49 ± 0.8 µM
IC50 (SW-480): 10.22 ± 0.04 µM
Inhibition of enzyme activity, % of control: HK2 (hexokinase II): 36.01 % of control
Inhibition of enzyme activity, % of control: PFK1 (phosphofructokinase I): 9.05 % of control

Inhibition of enzyme activity, % of control: PKM2 (pyruvate kinase M2): 9.48 % of control
SMILES: O=C1C(Cl)=C(Cl)C(=O)c2c1nc1n2CCCC1 [Compound 6d, 7,8-dichloro-1,2,3,4-tetrahydropyrido[1,2-a]benzimidazole-6,9-dione]
IC50 at 24 h (MTT cytotoxicity assay): 15.1 ± 0.38 µM
IC50 (A549): 7.76 ± 0.17 µM
IC50 (MCF-7): 8.52 ± 0.23 µM
IC50 (SH-SY5Y): 8.52 ± 0.49 µM
IC50 (SW-480): 8.68 ± 0.2 µM
Inhibition of enzyme activity, % of control: PFK1 (phosphofructokinase I): 8.30 % of control

Inhibition of enzyme activity, % of control: PKM2 (pyruvate kinase M2): 8.36 % of control
SMILES: CC1CCn2c(nc3c2C(=O)C(Br)=C(Cl)C3=O)C1 (stereo not shown) [Compound 6e, 8-bromo-7-chloro-3-methyl-1,2,3,4-tetrahydropyrido[1,2-a]benzimidazole-6,9-dione]
IC50 at 24 h (MTT cytotoxicity assay): 20.2 ± 0.3 µM
IC50 (A549): 8.23 ± 0.39 µM
IC50 (MCF-7): 8.97 ± 0.05 µM
IC50 (SH-SY5Y): 9.28 ± 0.15 µM
IC50 (SW-480): 9.53 ± 0.51 µM
Inhibition of enzyme activity, % of control: HK2 (hexokinase II): 36.22 % of control
Inhibition of enzyme activity, % of control: PFK1 (phosphofructokinase I): 7.40 % of control

Inhibition of enzyme activity, % of control: PKM2 (pyruvate kinase M2): 12.09 % of control
SMILES: O=C1C(Cl)=C(Br)C(=O)c2c1nc1n2CCOC1 [Compound 6f, 7-bromo-8-chloro-3,4-dihydro-1H-[1,4]oxazino[4,3-a]benzimidazole-6,9-dione]
IC50 at 24 h (MTT cytotoxicity assay): 25.38 ± 0.02 µM
IC50 (A549): 11.3 ± 2.49 µM
IC50 (MCF-7): 8.9 ± 0.19 µM
IC50 (SH-SY5Y): 10.8 ± 0.93 µM
IC50 (SW-480): 8.44 ± 0.07 µM
Inhibition of enzyme activity, % of control: HK2 (hexokinase II): 30.83 % of control
Inhibition of enzyme activity, % of control: PFK1 (phosphofructokinase I): 7.57 % of control

SMILES: CO[C@@]12[C@H](COC(N)=O)C3=C(C(=O)C(C)=C(N)C3=O)N1C[C@@H]1N[C@@H]12 [Mytomycin C, Mitomycin C, reference compound]
IC50 at 24 h (MTT cytotoxicity assay): 6.59 ± 1.46 µM
IC50 (A549): 18.1 ± 1.8 µM
IC50 (MCF-7): 20.4 ± 1.74 µM
IC50 (SH-SY5Y): 7.04 ± 0.02 µM
IC50 (SW-480): 11.3 ± 0.46 µM
IC50 at 24 h [1]: 8 to 20 µM
